Test results taken from US10294202B2, “Pyrrolidinones as herbicides” (FMC Corporation, priority 2013, dated 2019).

Legend:
giant foxtail = experiment: Test A pre-/postemergence herbicide test; assay type: in vivo, Setaria faberii
Outline: (§1)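 Formulated compound (non-phytotoxic solvent, surfactant) sprayed pre- onto soil of seeded loam/sand pots or post- onto seedlings at 1–2 leaves; ~10 d greenhouse; 0–100 visual control rating versus untreated.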

wheat = experiment: Test A pre-/postemergence herbicide test; assay type: in vivo, Triticum aestivum
Outline: as §1

wheat (winter wheat) = experiment: Test C pre-/postemergence herbicide test; assay type: in vivo, Triticum aestivum; details: for Wheat plant response rating: scale 0 to 100, 0 is no effect and 100 is complete control
From the text: (§2) Seeds of plant species selected from blackgrass (Alopecurus myosuroides), ryegrass, Italian (Italian ryegrass, Lolium multiflorum), wheat (winter wheat, Triticum aestivum), galium (catchweed bedstraw, Galium aparine), corn (Zea mays), crabgrass, large (large crabgrass, Digitaria sanguinalis), foxtail, giant (giant foxtail, Setaria faberii), johnsongrass (Sorghum halepense), lambsquarters (Chenopodium album), morningglory (Ipomoea coccinea), nutsedge, yellow (yellow nutsedge, Cyperus esculentus), pigweed (Amaranthus retroflexus), ragweed (common ragweed, Ambrosia elatior), soybean (Glycine max), barnyardgrass (Echinochloa crus-galli), oilseed rape (Brassica napus), waterhemp (common waterhemp, Amaranthus rudis), kochia (Kochia scoparia), oat, wild (wild oat, Avena fatua), surinam grass (Brachiaria decumbens), foxtail, green (green foxtail, Setaria viridis), goosegrass (Eleusine indica), bromegrass, downy (downy bromegrass, Bromus tectorum), nightshade (eastern black nightshade, Solanum ptycanthum), cocklebur (common cocklebur, Xanthium strumarium), cupgrass, woolly (woolly cupgrass, Eriochloa villosa), bermudagrass (Cynodon dactylon), sunflower, (common oilseed sunflower, Helianthus annuus), Russian thistle (Salsola kali) and velvetleaf (Abutilon theophrasti) were planted into a blend of loam soil and sand and treated preemergence with test chemicals formulated in a non-phytotoxic solvent mixture which included a surfactant. At the same time, plants selected from these crop and weed species and also barley (winter barley, Hordeum vulgare), […]), chickweed (common chickweed, Stellaria media), deadnettle (henbit deadnettle, Lamium amplexicaule), and canarygrass (littleseed canarygrass, Phalaris minor) were planted in pots containing Redi-Earth® planting medium (Scotts Company, 14111 Scottslawn Road, Marysville, Ohio 43041) comprising spaghnum peat moss, vermiculite, wetting agent and starter nutrients and treated with postemergence applications of test chemicals formulated in the same manner. Plants ranged in height from 2 to 18 cm (1- to 4-leaf stage) for postemergence treatments. Treated plants and controls were maintained in a greenhouse for 13 to 15 days, after which time all species were compared to controls and visually evaluated. Plant response ratings, summarized in Table C, are based on a scale of 0 to 100 where 0 is no effect and 100 is complete control. A dash (-) response means no test result.

galium = experiment: Test C pre-/postemergence herbicide test; assay type: in vivo, Galium aparine
Outline: (§3)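 Compound solutions contained surfactant in a non-phytotoxic solvent. These were sprayed onto pots of loam/sand sown with seeds, and onto young plants (2 to 18 cm, 1- to 4-leaf) in sphagnum peat–vermiculite mix. Visual injury scores (0 none, 100 complete control) were recorded after 13 to 15 days.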

foxtail, giant = experiment: Test C pre-/postemergence herbicide test; assay type: in vivo, Setaria faberii
From the text: as §2

johnsongrass = experiment: Test C pre-/postemergence herbicide test; assay type: in vivo, Sorghum halepense; details: for Johnsongrass plant response rating: scale 0 to 100, 0 is no effect and 100 is complete control
Outline: as §3

lambsquarters = experiment: Test C pre-/postemergence herbicide test; assay type: in vivo, Chenopodium album; details: for Lambsquarters plant response rating: scale 0 to 100, 0 is no effect and 100 is complete control
From the text: as §2

morningglory = experiment: Test C pre-/postemergence herbicide test; assay type: in vivo, Ipomoea coccinea; details: for Morningglory plant response rating: scale 0 to 100, 0 is no effect and 100 is complete control
Outline: as §3

pigweed = experiment: Test C pre-/postemergence herbicide test; assay type: in vivo, Amaranthus retroflexus; details: for Pigweed plant response rating: scale 0 to 100, 0 is no effect and 100 is complete control
Outline: as §3

[1] = Postemergence, 125 g ai/ha, 0 to 100 scale, 0 no effect, 100 complete control
[2] = Postemergence, 500 g ai/ha, 0 to 100 scale (0 no effect, 100 complete control)
[3] = Preemergence, 125 g ai/ha, visual rating on 0 to 100 scale (0 no effect, 100 complete control)
[4] = preemergence, 500 g ai/ha, 0 to 100 scale
[5] = Postemergence, 31 g ai/ha, scale 0 (no effect) to 100 (complete control)
[6] = Postemergence, 62 g ai/ha, scale 0 to 100 (0 no effect, 100 complete control)
[7] = Postemergence, 125 g ai/ha, scale 0 to 100 (0 no effect, 100 complete control)
[8] = Postemergence, 250 g ai/ha, scale 0 to 100 (0 no effect, 100 complete control)
[9] = Preemergence, 62 g ai/ha, scale 0 to 100
[10] = Preemergence, 125 g ai/ha, scale 0 to 100 (0 no effect, 100 complete control)
[11] = Preemergence, 31 g ai/ha, scale 0 to 100, 0 is no effect and 100 is complete control
[12] = Preemergence, 250 g ai/ha, scale 0 to 100 (0 no effect, 100 complete control)
[13] = Postemergence, 1000 g ai/ha, 0 to 100 scale (0 no effect, 100 complete control)
[14] = Preemergence, 1000 g ai/ha, visual rating on 0 to 100 scale (0 no effect, 100 complete control), approx. 10 days
[15] = Preemergence, 31 g ai/ha, scale 0 to 100 (0 no effect, 100 complete control)

O=C1NCC(c2ccccc2)C1C(=O)Nc1ccccc1F (racemic) [Compound 81]
20: Plant response rating, Foxtail, Giant (giant foxtail; [1]) | Plant response rating, Wheat (wheat; [4])
27: Plant response rating (scale of 0 to 100), Lambsquarters (lambsquarters; Preemergence, 250 g ai/ha)
0: Plant response rating, Wheat (wheat; [1]) | Plant response rating, Wheat (wheat; [2]) | Wheat plant response rating (wheat; [3]) | Plant response rating, Wheat (wheat (winter wheat); [5]) | Plant response rating, Wheat (wheat (winter wheat); [6]) | Plant response rating, Wheat (wheat (winter wheat); [7]) | Plant response rating, Wheat (wheat (winter wheat); [8]) | Wheat plant response rating (wheat (winter wheat); Preemergence, 31 g ai/ha) | Plant response rating, Wheat (wheat (winter wheat); [9]) | Plant response rating, Wheat (wheat (winter wheat); [10]) | Plant response rating (scale of 0 to 100), Wheat (wheat (winter wheat); Preemergence, 250 g ai/ha) | Galium plant response rating (galium; [11]) | Plant response rating, Galium (galium; [9]) | Plant response rating, Galium (galium; [10]) | Plant response rating (scale of 0 to 100), Galium (galium; Preemergence, 250 g ai/ha) | Plant response rating, Foxtail, Giant (foxtail, giant; [5]) | Plant response rating, Foxtail, Giant (foxtail, giant; [6]) | Plant response rating, Foxtail, Giant (foxtail, giant; [7]) | Foxtail, Giant plant response rating (foxtail, giant; [11]) | Plant response rating, Johnsongrass (johnsongrass; [5]) | Plant response rating, Johnsongrass (johnsongrass; [6]) | Plant response rating, Johnsongrass (johnsongrass; [7]) | Plant response rating, Johnsongrass (johnsongrass; [8]) | Johnsongrass plant response rating (johnsongrass; Preemergence, 31 g ai/ha) | Plant response rating, Johnsongrass (johnsongrass; [9]) | Plant response rating, Johnsongrass (johnsongrass; [10]) | Plant response rating (scale of 0 to 100), Johnsongrass (johnsongrass; Preemergence, 250 g ai/ha) | Plant response rating, Lambsquarters (lambsquarters; [5]) | Plant response rating, Lambsquarters (lambsquarters; [6]) | Plant response rating, Lambsquarters (lambsquarters; [7]) | Lambsquarters plant response rating (lambsquarters; Preemergence, 31 g ai/ha) | Plant response rating, Lambsquarters (lambsquarters; [9]) | Plant response rating, Lambsquarters (lambsquarters; [10]) | Plant response rating, Morningglory (morningglory; [5]) | Plant response rating, Morningglory (morningglory; [6]) | Plant response rating, Morningglory (morningglory; [7]) | Plant response rating, Morningglory (morningglory; [8]) | Morningglory plant response rating (morningglory; Preemergence, 31 g ai/ha) | Plant response rating, Morningglory (morningglory; [9]) | Plant response rating, Morningglory (morningglory; [10]) | Plant response rating (scale of 0 to 100), Morningglory (morningglory; Preemergence, 250 g ai/ha) | Plant response rating, Pigweed (pigweed; [5]) | Plant response rating, Pigweed (pigweed; [6]) | Plant response rating, Pigweed (pigweed; [7]) | Plant response rating, Pigweed (pigweed; [8]) | Pigweed plant response rating (pigweed; Preemergence, 31 g ai/ha) | Plant response rating, Pigweed (pigweed; [9]) | Plant response rating, Pigweed (pigweed; [10]) | Plant response rating (scale of 0 to 100), Pigweed (pigweed; Preemergence, 250 g ai/ha)
70: Plant response rating, Foxtail, Giant (giant foxtail; [2])
30: Foxtail, Giant plant response rating (giant foxtail; [3])
17: Plant response rating, Foxtail, Giant (foxtail, giant; [9])
90: Plant response rating, Foxtail, Giant (giant foxtail; [4])
37: Plant response rating, Foxtail, Giant (foxtail, giant; [10])
3: Plant response rating, Lambsquarters (lambsquarters; [8])
7: Plant response rating, Foxtail, Giant (foxtail, giant; [8])
73: Plant response rating (scale of 0 to 100), Foxtail, Giant (foxtail, giant; Preemergence, 250 g ai/ha)

O=C1NCC(c2cccc(OC(F)(F)F)c2)C1C(=O)Nc1cccc(F)c1F (stereo not shown) [Compound 68]
85: Foxtail, Giant plant response rating (foxtail, giant; [11]) | Plant response rating, Pigweed (pigweed; [10])
30: Plant response rating, Wheat (wheat (winter wheat); [10])
80: Plant response rating, Foxtail, Giant (giant foxtail; [1]) | Plant response rating, Foxtail, Giant (giant foxtail; [2])
35: Plant response rating, Johnsongrass (johnsongrass; [9])
45: Pigweed plant response rating (pigweed; Preemergence, 31 g ai/ha)
40: Plant response rating, Johnsongrass (johnsongrass; [10])
55: Lambsquarters plant response rating (lambsquarters; Preemergence, 31 g ai/ha) | Plant response rating, Lambsquarters (lambsquarters; [9])
90: Foxtail, Giant plant response rating (giant foxtail; [3]) | Plant response rating, Foxtail, Giant (giant foxtail; [4]) | Plant response rating, Galium (galium; [10]) | Plant response rating, Galium (galium; [12]) | Plant response rating, Foxtail, Giant (foxtail, giant; [9]) | Plant response rating, Foxtail, Giant (foxtail, giant; [10])
15: Plant response rating, Morningglory (morningglory; [10])
95: Plant response rating, Foxtail, Giant (foxtail, giant; [12])
5: Plant response rating, Wheat (wheat (winter wheat); [9]) | Plant response rating, Galium (galium; [9])
0: Plant response rating, Wheat (wheat; [1]) | Wheat plant response rating (wheat; [3]) | Wheat plant response rating (wheat (winter wheat); Preemergence, 31 g ai/ha) | Galium plant response rating (galium; [11]) | Johnsongrass plant response rating (johnsongrass; Preemergence, 31 g ai/ha) | Morningglory plant response rating (morningglory; Preemergence, 31 g ai/ha) | Plant response rating, Morningglory (morningglory; [9])
75: Plant response rating, Pigweed (pigweed; [9])
65: Plant response rating, Lambsquarters (lambsquarters; [10])
20: Plant response rating, Wheat (wheat; [2]) | Plant response rating, Wheat (wheat; [4])

O=C1NCC(c2cc(F)c(F)c(F)c2)C1C(=O)Nc1ccccc1C(F)(F)F (racemic) [Compound 33]
35: Plant response rating, Wheat (wheat (winter wheat); [10])
98: Plant response rating, Foxtail, Giant (foxtail, giant; [10]) | Plant response rating, Foxtail, Giant (foxtail, giant; [12])
25: Plant response rating, Lambsquarters (lambsquarters; [10])
0: Plant response rating, Wheat (wheat (winter wheat); [9]) | Galium plant response rating (galium; [15]) | Plant response rating, Galium (galium; [9]) | Plant response rating, Johnsongrass (johnsongrass; [9]) | Plant response rating, Johnsongrass (johnsongrass; [10]) | Plant response rating, Lambsquarters (lambsquarters; [9]) | Plant response rating, Morningglory (morningglory; [9]) | Plant response rating, Morningglory (morningglory; [10]) | Plant response rating, Pigweed (pigweed; [9]) | Plant response rating, Pigweed (pigweed; [10])
50: Plant response rating, Wheat (wheat; [14])
60: Plant response rating, Wheat (wheat; [13]) | Plant response rating, Galium (galium; [10])
75: Foxtail, Giant plant response rating (foxtail, giant; [15])
95: Plant response rating, Foxtail, Giant (foxtail, giant; [9])
90: Plant response rating, Foxtail, Giant (giant foxtail; [13]) | Plant response rating, Foxtail, Giant (giant foxtail; [14]) | Plant response rating, Galium (galium; [12])

O=C1NCC(c2cc(F)c(F)c(F)c2)C1C(=O)Nc1ccccc1F (racemic) [Compound 34]
80: Plant response rating, Lambsquarters (lambsquarters; [10])
60: Plant response rating, Wheat (wheat; [14]) | Plant response rating, Galium (galium; [12])
95: Plant response rating, Foxtail, Giant (foxtail, giant; [9])
10: Plant response rating, Galium (galium; [8]) | Plant response rating, Johnsongrass (johnsongrass; [9]) | Plant response rating, Johnsongrass (johnsongrass; [10]) | Plant response rating, Lambsquarters (lambsquarters; [7]) | Plant response rating, Morningglory (morningglory; [8]) | Plant response rating, Pigweed (pigweed; [8])
35: Plant response rating, Wheat (wheat (winter wheat); [10]) | Plant response rating, Foxtail, Giant (foxtail, giant; [8])
0: Plant response rating, Wheat (wheat (winter wheat); [5]) | Plant response rating, Wheat (wheat (winter wheat); [6]) | Plant response rating, Wheat (wheat (winter wheat); [7]) | Plant response rating, Wheat (wheat (winter wheat); [8]) | Plant response rating, Wheat (wheat (winter wheat); [9]) | Plant response rating, Galium (galium; [5]) | Plant response rating, Galium (galium; [6]) | Plant response rating, Galium (galium; [7]) | Galium plant response rating (galium; [15]) | Plant response rating, Galium (galium; [9]) | Plant response rating, Foxtail, Giant (foxtail, giant; [5]) | Plant response rating, Johnsongrass (johnsongrass; [5]) | Plant response rating, Johnsongrass (johnsongrass; [6]) | Plant response rating, Johnsongrass (johnsongrass; [7]) | Plant response rating, Johnsongrass (johnsongrass; [8]) | Plant response rating, Lambsquarters (lambsquarters; [5]) | Plant response rating, Lambsquarters (lambsquarters; [6]) | Plant response rating, Morningglory (morningglory; [5]) | Plant response rating, Morningglory (morningglory; [9]) | Plant response rating, Pigweed (pigweed; [5]) | Plant response rating, Pigweed (pigweed; [6]) | Plant response rating, Pigweed (pigweed; [7]) | Plant response rating, Pigweed (pigweed; [9]) | Plant response rating, Pigweed (pigweed; [10])
40: Plant response rating, Lambsquarters (lambsquarters; [9])
98: Plant response rating, Foxtail, Giant (foxtail, giant; [10]) | Plant response rating, Foxtail, Giant (foxtail, giant; [12])
70: Plant response rating, Wheat (wheat; [13])
55: Plant response rating, Lambsquarters (lambsquarters; [8])
90: Plant response rating, Foxtail, Giant (giant foxtail; [13]) | Plant response rating, Foxtail, Giant (giant foxtail; [14]) | Foxtail, Giant plant response rating (foxtail, giant; [15])
5: Plant response rating, Galium (galium; [10]) | Plant response rating, Foxtail, Giant (foxtail, giant; [6]) | Plant response rating, Foxtail, Giant (foxtail, giant; [7]) | Plant response rating, Morningglory (morningglory; [6]) | Plant response rating, Morningglory (morningglory; [7]) | Plant response rating, Morningglory (morningglory; [10])
